One series in a line: physchem. Particulars: water.
Series [1] concerns the target T1, Adenosine receptor A1 (Cavia porcellus, UniProt P47745).
T1 sequence (P47745 whole entry): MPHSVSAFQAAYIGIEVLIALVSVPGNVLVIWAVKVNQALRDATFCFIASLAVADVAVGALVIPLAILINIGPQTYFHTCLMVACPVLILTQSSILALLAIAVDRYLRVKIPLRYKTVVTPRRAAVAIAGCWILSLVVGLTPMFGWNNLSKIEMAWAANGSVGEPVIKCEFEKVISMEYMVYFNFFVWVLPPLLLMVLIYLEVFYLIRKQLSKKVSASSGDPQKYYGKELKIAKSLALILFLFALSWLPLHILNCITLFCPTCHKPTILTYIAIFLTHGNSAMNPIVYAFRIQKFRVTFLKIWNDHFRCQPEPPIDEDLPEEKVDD
It is filed as cell membranes, Brain membranes.

The nature of series [2]: Solubility was measured in saline. It is filed as physicochemical.
Series [3] concerns the target T1, Adenosine receptor A1. It is filed as cell membranes, Brain membranes. This is another data set of the same source.
In another series the target is Adenosine A2 receptor (Homo sapiens, UniProt P29275+P29274). The series is described as follows: Binding affinity for adenosine A2 receptor using N-[3H]-ethyladenosin-5''-uronamide in guinea pig forebrain membranes.

In brackets after ≈: the same amount, converted by molar mass.

By solubility is commonly meant how much of the substance goes into solution per volume. The Ki is a measure of affinity in units of concentration, obtained from inhibition or displacement. A lower Ki goes with a stronger hold on the target.

Description for physchem: Solubility of the compound(10 mg) was measured in water(2.5 mL) at 20 degree celsius for 1 hr

For `CCCN1C(=O)N2C[C@@H](CC)N=C2c2[nH]c(C34CC5CC(CC3C5)C4)nc21`, in the series “physchem”, the solubility at 1 h was found to be 3000 µg/mL (≈ 8160 µM). The molecule further showed a Ki at Adenosine receptor A1 [1] of 2.7 nM.
In “physchem”, `CCCN1C(=O)N2C[C@H](CC)N=C2c2[nH]c(C34CC5CC(CC3C5)C4)nc21` displayed a solubility at 1 h of 2900 µg/mL (≈ 7890 µM). On Adenosine receptor A1 [1], this molecule had a Ki of 120 nM.
Molecule `CCCN1C(=O)N2CC(CC)N=C2c2[nH]c(C34CC5CC(CC3C5)C4)nc21` (stereo not given) gave a solubility in series [2] of 990 µg/mL (≈ 2690 µM). In addition, the solubility at 1 h in “physchem” was 3200 µg/mL (≈ 8710 µM). In addition, at Adenosine receptor A1 [3], the Ki was found to be 5.7 nM.
Consider `CCCn1c(=O)c2nc(C(C3CC3)C3CC3)[nH]c2n(CCC)c1=O`, for which the Ki at Adenosine A2 receptor was 430 nM. In addition, the solubility in series [2] amounted to 5.8 µg/mL (≈ 17.6 µM). Besides, the solubility at 1 h in “physchem” amounted to 8.5 µg/mL (≈ 25.7 µM).
For `CCCn1c(=O)c2[nH]c(C3CCC(=O)C3)nc2n(CCC)c1=O` (stereo not given), the concentration in solution in series [2] (solubility) was 200 µg/mL (≈ 628 µM). The amount in solution in the series “physchem” (solubility at 1 h) came to 220 µg/mL (≈ 691 µM).
Turning to `CCCn1c(=O)c2[nH]c(C3CCCC3)nc2n(CCC)c1=O` [1,3-DIPROPYL-8-CYCLOPENTYLXANTHINE [DPCPX]], the solubility at 1 h in “physchem” came to 3.3 µg/mL (≈ 10.8 µM).
In the case of `CCCn1c(=O)c2[nH]c(C34CC5CC(CC3C5)C4)nc2n(CCC)c1=O` [ROLOFYLLINE], the concentration in solution in series [2] (solubility) was 0.6 µg/mL (≈ 1.68 µM). Further, the concentration in solution in “physchem” (solubility at 1 h) was 0.5 µg/mL (≈ 1.4 µM).

The values are drawn from ChEMBL document CHEMBL1126134, “7,8-Dihydro-8-ethyl-2-(3-noradamantyl)-4-propyl-1H-imidazo[2,1-i]purin-5(4H)-one: a potent and water-soluble adenosine A1 antagonist” (J Med Chem, 1992).
